The source of these data is US4764515A, “Antitussive and central sedative composition of d-isomer of 3-(4-phenyl-1-piperazinyl)-1,2-propanediol” (priority 1983, dated 1988).

Entries after “also recorded” stand apart in the source; their conditions may differ. Where two headings read alike, the source gives them in different places.

In data set [1] the test system is oedema by carrageenin. Kind of data set: Carrageenin oedema test in the rat (anti-inflammatory activity). The class given is in vivo. The note with it: po, p.o. 1 h before phlogistic agent, C.L. 95%. From the text:
(§1) Screening for anti-inflammatory activity has been carried out employing the established carrageenin and ovoalbumin oedema tests in the rat, according to the methods described by C. A. Winter et al., Proc. Soc. Exp. Biol. Med., 111, 544, 1962 and Turne in "Screening Methods in Pharmacology" Acad. Press N.Y., cpt. 14, p. 164, 1965, respectively.
(§2) The compounds under exam have been administered by the oral route one hour before the injection of the phlogistic agent.

The test system of data set [2] is oedema by ovoalbumin. Kind of data set: Ovoalbumin oedema test in the rat (anti-inflammatory activity). The class given is in vivo. The note with it: po, p.o. 1 h before phlogistic agent, C.L. 95%.
Description: as §1, §2

The subject of data set [3] is electrical stimulation of the vagus nerv. Put plainly: Antitussive activity in the guinea pig after electrical stimulation of the vagus nerve. The class given is in vivo. Particulars: Cavia porcellus, iv, intravenously 5 min before electric stimulation, C.F. 95%, read-out: DE50 Electric stimulus (antitussive effect). The protocol:
(§3) The results of the antitussive activity tests, carried out in the guinea pig after electrical stimulation of the vagus nerv and exposure for 5 minutes to a 5% citric acid aerosol according to the methods of R. M. Piekirning et al., Arzn.
(§4) The compounds under exam have been administered intravenously 5 minutes before the electric stimulation and orally 60 minutes before the citric acid aerosol.

For data set [4], the system named is 5% citric acid aerosol. Kind of data set: Antitussive activity in the guinea pig after exposure to 5% citric acid aerosol. The class given is in vivo. Particulars: Cavia porcellus, po, read-out: DE50 5% Citric acid (antitussive effect).
Data set [5] concerns Central Nervous System. Put plainly: Influence on the sleeping time induced by barbiturates in the mouse (CNS activity). The class given is in vivo. The note with it: 30 min before secobarbital 35 mg/kg i.p., mean ± SE, controls 22.58 ± 1.14. From the text:
(§5) Tests have been carried out to determine the CNS activity, by evaluating the influence on the sleeping time induced by barbiturates in the mouse, according to the method of F. M. Berger "Methods in Drug Evaluation" Proc. Int. Symp. Milan, September 1965, North Holland Pubbl. Co., and by recording the electroencephalographic and electromiographic curves in the rat with chronically implanted electrodes, calculating the time (in seconds) in the awakening and sleeping condition (including synchronized and unsynchronized sleep).
(§6) The compounds under exam have been administered orally, in the sleeping time test 30 minutes before the i.p. injection of 35 mg/kg of secobarbital, while in the electroencephalographic test at the beginning of recording.

The nature of data set [6]: Acute toxicity, mouse. Particulars: in vivo, 14 days from administration, C.L. 95%, read-out: DL50. An excerpt:
(§7) Acute toxicity (at 14 days from the admi-
(§8) nistration) of (±) racemic dropropizine
(§9) (+) dextrorotatory isomer and (-) laevorotatory isomer

The nature of data set [7]: Acute toxicity, rat. Particulars: in vivo, 14 days from administration, C.L. 95%, read-out: DL50.
Description: as §7, §8, §9

Data set [8] has as its system Central Nervous System. Kind of data set: Electroencephalographic and electromiographic recording in the rat with chronically implanted electrodes (CNS activity). The class given is in vivo. The note with it: mean ± SE, controls 4.86 ± 0.60.
Description: as §5, §6

Data set [9] concerns antitussive activity. Kind of data set: Antitussive activity (overall statement). The class given is in vivo, guinea pig. The note with it: in words; versus racemic mixture; listed as laevorotatory isomer. How it is done: as §3, §4
For data set [10], the system named is antiinflammatory activity. Kind of data set: Antiinflammatory activity (overall statement). Format: in vivo, rat. The note with it: in words.
Description: as §1, §2

Setting [11] is: 3 h, 3th hour, read-out: DE50 Oedema by carrageenin 3th hour.
[12] abbreviates: 6 h, 6th hour, read-out: DE50 Oedema by carrageenin 6th hour.
Setting [13] is: 1st hour, read-out: DE50 Oedema by carrageenin 1st hour.
The mark [14] stands for this setting: 3 h, 3th hour, read-out: DE50 Oedema by ovoalbumin 3th hour.
The mark [15] stands for this setting: 6 h, 6th hour, read-out: DE50 Oedema by ovoalbumin 6th hour.
Where [16] appears, read: 1st hour, read-out: DE50 Oedema by ovoalbumin 1st hour.
The mark [17] stands for this setting: guinea pig, orally 60 min before citric acid aerosol (5 min exposure), C.F. 95%.

Consider `OCC(O)CN1CCN(c2ccccc2)CC1` (racemic) [(±), 3-(4-phenyl-1-piperazinyl)-1,2-propanediol], for which the ED50 in [1] (setting [11]) was 77.9 mg/kg; in data set [1] (setting [12]), 117 mg/kg; in data set [1] (setting [13]), 39 mg/kg; in [2] (setting [14]) it was 28.5 mg/kg; in [2] (setting [15]) it was 37.1 mg/kg; in data set [2] (setting [16]), 23.6 mg/kg. Also, the figures for the ED50 in data set [3] and in data set [4] (setting [17]) were 11.7 mg/kg and 117 mg/kg, respectively. Also, the “Duration of the sleeping time induced by barbiturates” value in data set [5] (50 mg/kg p.o.) came out at 118.83 ± 25.69 min; in data set [5] (100 mg/kg p.o.) it was 132.33 ± 13.16 min; in data set [5] (200 mg/kg p.o.) it was 134.16 ± 17.55 min. The LD50 at 336 h in data set [6] (ip) was found to be 340 mg/kg; in data set [6] (po), 900 mg/kg; in data set [7] (ip), 393 mg/kg; in data set [7] (po) it was 607 mg/kg.

`OC[C@H](O)CN1CCN(c2ccccc2)CC1` [(+), d-isomer of 3-(4-phenyl-1-piperazinyl)-1,2-propanediol]: the ED50 in data set [1] (setting [11]) was found to be 80.5 mg/kg; in data set [1] (setting [12]) it was 69.7 mg/kg; in [1] (setting [13]) it was 43.9 mg/kg; in data set [3] it was 23.5 mg/kg; in data set [4] (setting [17]), 141 mg/kg. Besides, the entries for the “Time spent in the sleeping condition” value in data set [8] (25 mg/kg p.o.), in [8] (50 mg/kg p.o.) and in [8] (100 mg/kg p.o.) were 6.18 ± 0.72 s, 12.36 ± 0.9 s and 28.92 ± 1.7 s, respectively. Besides, the LD50 at 336 h in data set [6] (ip) was 319 mg/kg; in [6] (po) it was 872 mg/kg; in data set [7] (ip), 363 mg/kg; in [7] (po) it was 721 mg/kg.

`OC[C@@H](O)CN1CCN(c2ccccc2)CC1` [(-), (-)-dropropizine]: the ED50 was determined as 212 mg/kg in data set [1] (setting [11]); 241 mg/kg in [1] (setting [12]); 233 mg/kg in data set [1] (setting [13]); 72.2 mg/kg in data set [2] (setting [14]); 121 mg/kg in data set [2] (setting [15]); 55.6 mg/kg in data set [2] (setting [16]). In addition, the ED50 in data set [3] stood at 13.5 mg/kg; in [4] (setting [17]) it was 151 mg/kg. For the same compound, the “Duration of the sleeping time induced by barbiturates” value in data set [5] (50 mg/kg p.o.) turned out to be 29.5 ± 2.59 min; in data set [5] (100 mg/kg p.o.), 54.4 ± 7.36 min; in data set [5] (200 mg/kg p.o.) it was 128.83 ± 17.14 min. The “Time spent in the sleeping condition” value in data set [8] (25 mg/kg p.o.) was found to be 5.8 ± 0.84 s; in [8] (50 mg/kg p.o.) it was 5.7 ± 0.48 s; in data set [8] (100 mg/kg p.o.), 13.68 ± 1.80 s. Moreover, the LD50 at 336 h amounted to 408 mg/kg in data set [6] (ip), 1290 mg/kg in [6] (po), 401 mg/kg in [7] (ip) and 887 mg/kg in data set [7] (po). Further, the antitussive activity entry in data set [9] is “unchanged antitussive and antiinflammatory activity; also recorded: same antitussive activity as the racemic mixture”. Besides, in data set [10], the antiinflammatory activity entry was “unchanged antitussive and antiinflammatory activity”.

For the compound `COc1ccc2c3c1O[C@H]1[C@@H](O)C=C[C@H]4[C@@H](C2)N(C)CC[C@@]341` [Codeine, codeine, reference compound], in data set [4], the ED50 was 65.1 mg/kg.
